Measured values from patent publication US12606552B2, “Bifunctional compound, preparation method therefor, and use thereof” (SUZHOU KINTOR PHARMACEUTICALS, INC., priority 2020, dated 2026).

Legend:
[1] = test system: flank sebaceous glands of golden hamster; test: In vivo efficacy on acne in female golden hamsters (growth of sebaceous plaques induced by testosterone propionate); conditions: skin smear once a day, 21 days
Source text: Activity Assay Example 7: In Vivo Efficacy of Compounds on Acne in Female Golden Hamsters
1. Test object: The flank sebaceous glands of golden hamster are androgen-dependent organs, and testosterone propionate (male hormone) promotes the enlargement of sebaceous glands. This experiment is mainly to study the inhibitory effect of CB-03-01 (positive drug), Flutamide (positive drug) and the compound on sebaceous gland enlargement in female golden hamster acne model (androgen dependence), to further observe the in vivo drug efficacy of the compound, to provide the basis for clinical trials of androgen-induced acne symptoms.
Androgen (Testosterone Propionate-TP); CB-03-01 (Clascoterone, CAS No. 19608-29-8); □ Flutamide (Flutamide, CAS No. 13311-84-7); compound A46 of the present invention.
2.2 Experimental Animals, See Table 4 for Details
2.3 Administration Vehicle: Acetone. 3. Experimental Design
In this experiment, from 72 female golden hamsters, according to the size and body weight of sebaceous glands, golden hamsters were evenly distributed to each group, 6 mice per group, a total of 7 groups, and they were administered continuously for 21 days.
According to the protocol in the table, […] of drug was administered each time, it was evenly smeared on the sebaceous glands, and administered once a day.
Animal grouping and status observation: Before grouping, the body weight was weighed, and the sebaceous glands on both sides were shaved for the observation of the size of sebaceous glands. Animals were observed twice a day in the morning and afternoon during the administration period. On the 21st day after administration, the size of sebaceous glands and the body weight of animals were observed and recorded.
The size of the sebaceous glands is expressed by the area, and the vernier caliper recorded its long side (a) and short side (b), and the area of the sebaceous glands (S) is obtained from the formula for calculating the area of a rectangle. In model group and administration group, ΔS=S−S(vehicle). Growth inhibition rate (%)=(ΔS(acetone testosterone group)−ΔS (administration group))/ΔS(acetone testosterone group)*100%.

[2] = test system: androgenetic alopecia model in C57BL/6J mice; test: Hair regeneration effects on androgenic alopecia C57 mouse model (DHT-induced); assay type: in vivo, C57BL/6N mice; conditions: AVER n = 6, score 0-5
Source text: Activity Assay Example 8: Hair Regeneration Effects of Compounds on Androgenic Alopecia C57 Mouse Model
The purpose of this study was to compare the effect of the compounds prepared by the present invention as AR protein degraders on hair regrowth in an androgenetic alopecia model in C57BL/6J mice by transdermal application route of administration, and to provide data to support subsequent clinical trials.
2. Experimental Principle
Name of test compound I: dihydrotestosterone DHT; name of test compound II: compound A46 of the present invention; name of test compound III: minoxidil.
4. Experimental animals: strain: C57BL/6N mice; age: 6-7 weeks; gender: male; number of animals: 70 (10 for later use); rearing environment: specific pathogen-free (SPF).
70 mice were deeply anesthetized, and the hair on the back of the mice was removed with an animal shaver, then the depilatory cream (Veet https://item.jd.com/6291245.html) was smeared evenly on the surface of the mice skin, and left 7-10 minutes. Then the hair was gently scraped off with a hair removal scraper against the direction of the hair, and finally the residual hair removal cream on the skin surface was fully washed with water to avoid burning the mice skin.
This experiment was divided into 6 groups, and the DHT administration started on the day of hair removal, A46 is administered on day 2 after hair removal and is counted as day 1 (the day of hair removal is counted as day 0).
5.3 Test Compound Preparation Method
5.4 Observation and Measurement Indicators • 1) Body weight/g: From the first day of administration, body weight was weighed and recorded twice a week. • 2) Hair regeneration (anagen) score (0 points: no darkening of skin color in all areas; 1 point: darkening of gray skin color areas; 2 points: visible short hair; 3 points: thin hair; 4 points: thick hair; 5 points: full hair growth).
All mice were photographed on day 1 after hair removal, and then photographed and scored daily from day 4 until the end of the experiment. • 3) At the end of the experiment, skin and blood collection operations were performed as needed. 5.5 Criteria for Drug Withdrawal and Experiment Termination
Data are presented as average±standard error (AVE±SEM). One-way multi-level analysis of variance was used for statistics. The comparison between each drug group and the model group was performed by Stundent's t-test or rank sum test, and the p value was calculated. p<0.05 means there is a significant difference between the two groups, p<0.01 means there is a extremely significant difference between the two groups.

Cc1ncsc1-c1ccc(CNC(=O)[C@@H]2C[C@@H](O)CN2C(=O)[C@@H](NC(=O)COCCCCOc2ccc(-c3ccc(N4C(=S)N(c5ccc(C#N)c(C(F)(F)F)c5F)C(=O)C4(C)C)cn3)cc2)C(C)(C)C)cc1 [Compound A46]
The inhibition rate of the growth of sebaceous plaques (%) ([1]; 100 μg (0.4%) + testosterone propionate 12 μg): 19.24% | The inhibition rate of the growth of sebaceous plaques (%) ([1]; 200 μg (0.8%) + testosterone propionate 12 μg): 35.20% | The inhibition rate of the growth of sebaceous plaques (%) ([1]; 400 μg (1.6%) + testosterone propionate 12 μg): 49.54% | The inhibition rate of the growth of sebaceous plaques (%) ([1]; 800 μg (3.2%) + testosterone propionate 12 μg): 51.61% | Hair regeneration score ([2]; 0.5% skin smear BID + DHT 30 mpk, 0 day): 0.00 | Hair regeneration score ([2]; 0.5% skin smear BID + DHT 30 mpk, 3 days): 0.00 | Hair regeneration score ([2]; 0.5% skin smear BID + DHT 30 mpk, 5 days): 0.00 | Hair regeneration score ([2]; 0.5% skin smear BID + DHT 30 mpk, 7 days): 0.00 | Hair regeneration score ([2]; 0.5% skin smear BID + DHT 30 mpk, 10 days): 0.33 | Hair regeneration score ([2]; 0.5% skin smear BID + DHT 30 mpk, 12 days): 0.50 | Hair regeneration score ([2]; 0.5% skin smear BID + DHT 30 mpk, 14 days): 1.00 | Hair regeneration score ([2]; 0.5% skin smear BID + DHT 30 mpk, 17 days): 1.67 | Hair regeneration score ([2]; 1% skin smear BID + DHT 30 mpk, 0 day): 0.00 | Hair regeneration score ([2]; 1% skin smear BID + DHT 30 mpk, 3 days): 0.00 | Hair regeneration score ([2]; 1% skin smear BID + DHT 30 mpk, 5 days): 0.00 | Hair regeneration score ([2]; 1% skin smear BID + DHT 30 mpk, 7 days): 0.00 | Hair regeneration score ([2]; 1% skin smear BID + DHT 30 mpk, 10 days): 0.33 | Hair regeneration score ([2]; 1% skin smear BID + DHT 30 mpk, 12 days): 0.83 | Hair regeneration score ([2]; 1% skin smear BID + DHT 30 mpk, 14 days): 1.50 | Hair regeneration score ([2]; 1% skin smear BID + DHT 30 mpk, 17 days): 2.00 | Hair regeneration score ([2]; 3% skin smear BID + DHT 30 mpk, 0 day): 0.00 | Hair regeneration score ([2]; 3% skin smear BID + DHT 30 mpk, 3 days): 0.00 | Hair regeneration score ([2]; 3% skin smear BID + DHT 30 mpk, 5 days): 0.00 | Hair regeneration score ([2]; 3% skin smear BID + DHT 30 mpk, 7 days): 0.00 | Hair regeneration score ([2]; 3% skin smear BID + DHT 30 mpk, 10 days): 0.50 | Hair regeneration score ([2]; 3% skin smear BID + DHT 30 mpk, 12 days): 1.17 | Hair regeneration score ([2]; 3% skin smear BID + DHT 30 mpk, 14 days): 1.83 | Hair regeneration score ([2]; 3% skin smear BID + DHT 30 mpk, 17 days): 2.83
